Read-outs that look alike come from different tables or passages of the source.
Tests used:
HepG2 cells [1] = assay: HepG2 cytotoxicity assay; conditions: HepG2 cytotoxicity unified across the three screens
Method in brief: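 Cells at 2,500 per well in MEM with 10% fetal bovine serum and 1% NEAA were exposed to test compounds for 48 h at 37°C, 5% CO2. Viability was read by fluorescence, with percent inhibition calculated against 50 μM doxorubicin (positive) and DMSO (negative) controls.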

[2] = test system: P. falciparum late stage (stages IV-V) gametocytes; set-up: method as in Almela et al 2016; conditions: TCAMS screen comparison; ref Almela et al 2016; read-out: Pf GCT ATP IC50; cited from earlier work
[3] = test system: P. falciparum female gametocytes; set-up: method as in Miguel-Blanco et al 2017; conditions: TCAMS screen comparison; ref Miguel-Blanco et al 2017; read-out: Pf FGAA IC50; cited from earlier work
HepG2 cells [4] = conditions: cited from earlier work
[5] = test system: P. falciparum female gametocytes; assay: P. falciparum female gametogenesis assay (Pf FGAA); conditions: 1: YES; 0: NO
[6] = test system: P. falciparum late stage (stages IV-V) gametocytes; assay: P. falciparum late stage gametocyte ATP depletion assay (Pf GC-ATP); conditions: 1: YES; 0: NO
[7] = value reported with the Pf FGAA screen, ref Miguel-Blanco et al 2017
[8] = value reported with the Pf GCT ATP screen, ref Almela et al 2016

Cc1cc(OCCN2CCCCC2)ccc1NC(=O)c1cccc2c(=O)n(Cc3ccc(Cl)cc3)cnc12 [TCMDC-136727]
Unified cytotox (HepG2 cells [1]): 4.45 µM | IC50 [2]: 950 nM | IC50 [3]: 1400 nM | HepG2 cytoxicity (HepG2 cells [4]; [7]): 4.17 µM | HepG2 cytoxicity (HepG2 cells [4]; [8]): 4.73 µM | Is compound selective in assay? Pf FGAA active? [5]: 0 (0: NO) | Is compound selective in assay? Pf GC-ATP active? [6]: 0 (0: NO)

CC(C)NCc1ccc(OCc2cccc(COc3ccc(CNC(C)C)cc3I)c2)c(I)c1.Cl [TCMDC-137259]
Unified cytotox (HepG2 cells [1]): 3.27 µM | IC50 [2]: 210 nM | IC50 [3]: 1320 nM | HepG2 cytoxicity (HepG2 cells [4]; [7]): 1.64 µM | HepG2 cytoxicity (HepG2 cells [4]; [8]): 4.9 µM | Is compound selective in assay? Pf FGAA active? [5]: 0 (0: NO) | Is compound selective in assay? Pf GC-ATP active? [6]: 1 (1: YES)

CCCCOc1ccc(CNCCCCCCNCc2ccc(OCCCC)c3ccccc23)c2ccccc12.CS(=O)(=O)O [TCMDC-137281]
Unified cytotox (HepG2 cells [1]): 2.67 µM | IC50 [2]: 2800 nM | IC50 [3]: 400 nM | HepG2 cytoxicity (HepG2 cells [4]; [7]): 2.29 µM | HepG2 cytoxicity (HepG2 cells [4]; [8]): 3.04 µM | Is compound selective in assay? Pf FGAA active? [5]: 0 (0: NO) | Is compound selective in assay? Pf GC-ATP active? [6]: 0 (0: NO)

CS(=O)(=O)O.FC(F)(F)COc1ccc(CCNCCCCNCCc2ccc(OCC(F)(F)F)c3ccccc23)c2ccccc12 [TCMDC-137282]
Unified cytotox (HepG2 cells [1]): 2.33 µM | IC50 [2]: 26.7 nM | IC50 [3]: 200 nM | HepG2 cytoxicity (HepG2 cells [4]; [7]): 1.66 µM | HepG2 cytoxicity (HepG2 cells [4]; [8]): 3 µM | Is compound selective in assay? Pf FGAA active? [5]: 1 (1: YES) | Is compound selective in assay? Pf GC-ATP active? [6]: 1 (1: YES)

CS(=O)(=O)O.FC(F)(F)COc1ccc2ccccc2c1CCNCCCCNCCc1c(OCC(F)(F)F)ccc2ccccc12 [TCMDC-137317]
Unified cytotox (HepG2 cells [1]): 2.70 µM | IC50 [2]: 1370 nM | IC50 [3]: 1010 nM | HepG2 cytoxicity (HepG2 cells [4]; [7]): 2.09 µM | HepG2 cytoxicity (HepG2 cells [4]; [8]): 3.3 µM | Is compound selective in assay? Pf FGAA active? [5]: 0 (0: NO) | Is compound selective in assay? Pf GC-ATP active? [6]: 0 (0: NO)

COc1cc2c(cc1CCNCCCCNCCc1cc3c(cc1OC)CCCC3)CCCC2.CS(=O)(=O)O [TCMDC-137319]
Unified cytotox (HepG2 cells [1]): 1.86 µM | IC50 [2]: 80 nM | IC50 [3]: 890 nM | HepG2 cytoxicity (HepG2 cells [4]; [7]): 1.86 µM | HepG2 cytoxicity (HepG2 cells [4]; [8]): <1.56 µM | Is compound selective in assay? Pf FGAA active? [5]: 0 (0: NO) | Is compound selective in assay? Pf GC-ATP active? [6]: 1 (1: YES)

COc1ccc2c(c1CCNCCCCNCCc1c(OC)ccc3c1CCCC3)CCCC2.CS(=O)(=O)O [TCMDC-137324]
Unified cytotox (HepG2 cells [1]): 1.21 µM | IC50 [2]: 150 nM | IC50 [3]: 640 nM | HepG2 cytoxicity (HepG2 cells [4]; [7]): 1.68 µM | HepG2 cytoxicity (HepG2 cells [4]; [8]): 0.75 µM | Is compound selective in assay? Pf FGAA active? [5]: 0 (0: NO) | Is compound selective in assay? Pf GC-ATP active? [6]: 0 (0: NO)

C=CCOc1ccc2ccccc2c1CNCCCCCCNCc1c(OCC=C)ccc2ccccc12.CS(=O)(=O)O [TCMDC-137340]
Unified cytotox (HepG2 cells [1]): 1.93 µM | IC50 [2]: 250 nM | IC50 [3]: 700 nM | HepG2 cytoxicity (HepG2 cells [4]; [7]): 1.93 µM | HepG2 cytoxicity (HepG2 cells [4]; [8]): <1.56 µM | Is compound selective in assay? Pf FGAA active? [5]: 0 (0: NO) | Is compound selective in assay? Pf GC-ATP active? [6]: 0 (0: NO)

Cl.c1ccc2c(Nc3ccc(Cc4ccc(Nc5c6ccccc6nc6ccccc56)cc4)cc3)c3ccccc3nc2c1 [TCMDC-137354]
Unified cytotox (HepG2 cells [1]): 4.17 µM | IC50 [2]: 2300 nM | IC50 [3]: 1040 nM | HepG2 cytoxicity (HepG2 cells [4]; [7]): 3.85 µM | HepG2 cytoxicity (HepG2 cells [4]; [8]): 4.49 µM | Is compound selective in assay? Pf FGAA active? [5]: 0 (0: NO) | Is compound selective in assay? Pf GC-ATP active? [6]: 0 (0: NO)

Br.C/C=C/C=C/C1=NCCc2cc(OCCC)ccc21 [TCMDC-137442]
Unified cytotox (HepG2 cells [1]): 18.64 µM | IC50 [2]: 750 nM | IC50 [3]: 1300 nM | HepG2 cytoxicity (HepG2 cells [4]; [7]): 18.29 µM | HepG2 cytoxicity (HepG2 cells [4]; [8]): 19 µM | Is compound selective in assay? Pf FGAA active? [5]: 1 (1: YES) | Is compound selective in assay? Pf GC-ATP active? [6]: 1 (1: YES)

Cl.N=C(NCCCCC1CCCCC1)c1cccc(C(=N)NCCCCC2CCCCC2)n1 [TCMDC-137452]
Unified cytotox (HepG2 cells [1]): 1.71 µM | IC50 [2]: 220 nM | IC50 [3]: 1050 nM | HepG2 cytoxicity (HepG2 cells [4]; [7]): 1.82 µM | HepG2 cytoxicity (HepG2 cells [4]; [8]): 1.6 µM | Is compound selective in assay? Pf FGAA active? [5]: 0 (0: NO) | Is compound selective in assay? Pf GC-ATP active? [6]: 0 (0: NO)

CC(CNC(=N)c1cccc(C(=N)NCC(C)Oc2cccc(C3CCCCC3)c2)n1)Oc1cccc(C2CCCCC2)c1.Cl (centres unmarked) [TCMDC-137455]
Unified cytotox (HepG2 cells [1]): 2.85 µM | IC50 [2]: 240 nM | IC50 [3]: 1270 nM | HepG2 cytoxicity (HepG2 cells [4]; [7]): 2.16 µM | HepG2 cytoxicity (HepG2 cells [4]; [8]): 3.53 µM | Is compound selective in assay? Pf FGAA active? [5]: 0 (0: NO) | Is compound selective in assay? Pf GC-ATP active? [6]: 1 (1: YES)

N=C(NCC1CC1c1ccccc1)c1cccc(C(=N)NCC2CC2c2ccccc2)n1 (centres unmarked) [TCMDC-137456]
Unified cytotox (HepG2 cells [1]): 6.50 µM | IC50 [2]: 450 nM | IC50 [3]: 1890 nM | HepG2 cytoxicity (HepG2 cells [4]; [7]): 6.21 µM | HepG2 cytoxicity (HepG2 cells [4]; [8]): 6.8 µM | Is compound selective in assay? Pf FGAA active? [5]: 0 (0: NO) | Is compound selective in assay? Pf GC-ATP active? [6]: 1 (1: YES)

COc1ccc(CNCCCCCCNCc2ccc(OC)c3ccccc23)c2ccccc12.Cl [TCMDC-137631]
Unified cytotox (HepG2 cells [1]): 2.44 µM | IC50 [2]: 510 nM | IC50 [3]: 720 nM | HepG2 cytoxicity (HepG2 cells [4]; [7]): 1.82 µM | HepG2 cytoxicity (HepG2 cells [4]; [8]): 3.06 µM | Is compound selective in assay? Pf FGAA active? [5]: 0 (0: NO) | Is compound selective in assay? Pf GC-ATP active? [6]: 0 (0: NO)

CN1CCN(CCNc2c3ccccc3nc3c2ccc2ccccc23)CC1.Cl [TCMDC-137723]
Unified cytotox (HepG2 cells [1]): 5.84 µM | IC50 [2]: 390 nM | IC50 [3]: 3490 nM | HepG2 cytoxicity (HepG2 cells [4]; [7]): 5.07 µM | HepG2 cytoxicity (HepG2 cells [4]; [8]): 6.6 µM | Is compound selective in assay? Pf FGAA active? [5]: 0 (0: NO) | Is compound selective in assay? Pf GC-ATP active? [6]: 1 (1: YES)

COc1ccc2nc(-c3ccccc3)cc(NCCCNc3cc(-c4ccccc4)nc4ccc(OC)cc34)c2c1.Cl [TCMDC-137734]
Unified cytotox (HepG2 cells [1]): 38.15 µM | IC50 [2]: 1210 nM | IC50 [3]: 5600 nM | HepG2 cytoxicity (HepG2 cells [4]; [7]): 70.79 µM | HepG2 cytoxicity (HepG2 cells [4]; [8]): 5.5 µM | Is compound selective in assay? Pf FGAA active? [5]: 0 (0: NO) | Is compound selective in assay? Pf GC-ATP active? [6]: 1 (1: YES)

Cl.c1ccc2c(NCCCCCCCCCNc3ccnc4ccccc34)ccnc2c1 [TCMDC-137750]
Unified cytotox (HepG2 cells [1]): 2.20 µM | IC50 [2]: 1030 nM | IC50 [3]: 850 nM | HepG2 cytoxicity (HepG2 cells [4]; [7]): 1.50 µM | HepG2 cytoxicity (HepG2 cells [4]; [8]): 2.9 µM | Is compound selective in assay? Pf FGAA active? [5]: 0 (0: NO) | Is compound selective in assay? Pf GC-ATP active? [6]: 0 (0: NO)

Cl.c1ccc2c(NCCCCCCCCNc3ccnc4ccccc34)ccnc2c1 [TCMDC-137751]
Unified cytotox (HepG2 cells [1]): 2.44 µM | IC50 [2]: 1080 nM | IC50 [3]: 1020 nM | HepG2 cytoxicity (HepG2 cells [4]; [7]): 1.15 µM | HepG2 cytoxicity (HepG2 cells [4]; [8]): 3.74 µM | Is compound selective in assay? Pf FGAA active? [5]: 0 (0: NO) | Is compound selective in assay? Pf GC-ATP active? [6]: 0 (0: NO)

CS(=O)(=O)O.CSc1ccc2ccccc2c1CCNCCCCNCCc1c(SC)ccc2ccccc12 [TCMDC-137763]
Unified cytotox (HepG2 cells [1]): 1.73 µM | IC50 [2]: 230 nM | IC50 [3]: 1010 nM | HepG2 cytoxicity (HepG2 cells [4]; [7]): 1.82 µM | HepG2 cytoxicity (HepG2 cells [4]; [8]): 1.65 µM | Is compound selective in assay? Pf FGAA active? [5]: 0 (0: NO) | Is compound selective in assay? Pf GC-ATP active? [6]: 0 (0: NO)

CC1CCCCN1CCCNc1nc(NCc2ccccc2)c2ccccc2n1 (centres unmarked) [TCMDC-137771]
Unified cytotox (HepG2 cells [1]): 17.35 µM | IC50 [2]: 140 nM | IC50 [3]: 7250 nM | HepG2 cytoxicity (HepG2 cells [4]; [7]): 14.62 µM | HepG2 cytoxicity (HepG2 cells [4]; [8]): 20.07 µM | Is compound selective in assay? Pf FGAA active? [5]: 0 (0: NO) | Is compound selective in assay? Pf GC-ATP active? [6]: 1 (1: YES)
